Assay results published in patent EP4603105A1, “PHARMACEUTICAL COMPOSITION CONTAINING CYCLIC COMPOUND HAVING SELECTIVE KRAS INHIBITORY EFFECT AGAINST HRAS AND NRAS” (CHUGAI SEIYAKU KABUSHIKI KAISHA, priority 2022, dated 2024).
Where a SMILES comes first, the peptide text is derived from it. Bridges are numbered along the chain shown (N, C = ends). [ ]: non-standard residue; d: D form. The star is where a group is joined. hPhe(3-Cl-4-CF3) = N[C@@H](CCc1ccc(C(F)(F)F)c(Cl)c1)C(=O)O; NPrPhe(4-CF3) = CCCN[C@@H](Cc1ccc(C(F)(F)F)cc1)C(=O)O; NEtPhe(4-Me) = CCN[C@@H](Cc1ccc(C)cc1)C(=O)O; NMeGly(cPent) = CN[C@H](C(=O)O)C1CCCC1; Hyp = O=C(O)[C@@H]1C[C@@H](O)CN1; NMeD = CN[C@@H](CC(=O)O)C(=O)O; NMeL = CN[C@@H](CC(C)C)C(=O)O; Morpholide = C1CN(*)CCO1; Ac5c = NC1(C(=O)O)CCCC1; Aze = O=C(O)[C@@H]1CCN1; X4 = C1CCC(*)OC1; Sar = CNCC(=O)O

Key:
[1] = molecular target: HRAS wild-type protein (Homo sapiens, UniProt P01112); assay: Binding to HRAS by surface plasmon resonance (SPR), KD and KD ratio to KRAS
Outline: (§1)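 GDP-loaded biotinylated Avi-tag RAS proteins (E. coli-expressed) captured on a Biotin CAPture chip at ~100–300 RU; single-cycle kinetics at 30°C, 100 µL/min, 75 s injections of rising compound concentrations. HBS pH 7.4 running buffer with 1 mM DTT, 10 mM MgCl2, 10 µM GDP, 4% DMSO. KD from 1:1 binding fit.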

[2] = molecular target: GDP-bound NRAS wild-type protein (Homo sapiens, UniProt P01111); assay: Binding to NRAS by surface plasmon resonance (SPR), KD and KD ratio to KRAS
Outline: as §1

[3] = test system: human lung cancer strain NCI-H441; assay type: cell-based
Outline: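 Readout: […] after the ATP-based reagent. Compound: serial dilutions in dimethyl sulfoxide.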

[4] = molecular target: GDP-bound KRAS wild-type protein (Homo sapiens, UniProt P01116); assay: Binding to KRAS by surface plasmon resonance (SPR), dissociation constant KD; conditions: 1:1 binding model
Outline: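 Single-cycle kinetics on GDP-loaded biotin-Avi RAS captured to ~100–300 RU; 75 s ascending injections, 100 µL/min, 30°C. HBS pH 7.4 + 10 mM MgCl2/10 µM GDP/4% DMSO. 1:1 fit, KD.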

[5] = ratio of KD for HRAS wild-type protein to KD for KRAS
[6] = ratio of KD for GDP-bound NRAS wild-type protein to KD for KRAS
[7] = ratio of the KD value with respect to HRAS wild-type protein to the KD value with respect to KRAS
[8] = ratio of the KD value with respect to GDP-bound NRAS wild-type protein to the KD value with respect to KRAS

Sequence of GDP-bound NRAS wild-type protein (P01111 whole entry): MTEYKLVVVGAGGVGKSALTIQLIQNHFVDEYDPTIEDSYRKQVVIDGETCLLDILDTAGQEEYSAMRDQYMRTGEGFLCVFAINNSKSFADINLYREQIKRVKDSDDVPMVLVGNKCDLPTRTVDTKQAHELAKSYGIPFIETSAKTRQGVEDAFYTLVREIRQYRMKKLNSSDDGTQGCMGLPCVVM
Sequence of HRAS wild-type protein (P01112 whole entry): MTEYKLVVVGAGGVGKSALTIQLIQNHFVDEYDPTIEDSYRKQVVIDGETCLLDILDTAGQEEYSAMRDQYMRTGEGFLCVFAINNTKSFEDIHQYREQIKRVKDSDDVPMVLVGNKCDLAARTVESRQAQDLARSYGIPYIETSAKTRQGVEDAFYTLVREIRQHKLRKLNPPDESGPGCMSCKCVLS
Sequence of GDP-bound KRAS wild-type protein (P01116 1-188 isoform P01116-2): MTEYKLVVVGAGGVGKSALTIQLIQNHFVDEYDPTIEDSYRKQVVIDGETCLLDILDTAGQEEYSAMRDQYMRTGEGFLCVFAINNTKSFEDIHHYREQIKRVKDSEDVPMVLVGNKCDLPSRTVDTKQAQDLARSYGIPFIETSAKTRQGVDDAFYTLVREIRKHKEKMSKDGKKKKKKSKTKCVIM

| SMILES | IC50 [3] [nM] | Kd [4] [nM] | Kd ([4]; Single Cycle Kinetics) [nM] | HRAS /KRAS [1, 5] | NRAS /KRAS [2, 6] | HRAS /KRAS [1, 7] | NRAS /KRAS [2, 8] |
| --- | --- | --- | --- | --- | --- | --- | --- |
| CCO[C@@H]1C[C@H]2C(=O)NC3(CCC3)C(=O)N(C)[C@@H](C3CCCC3)C(=O)N(C)[C@H](C(=O)N(C)CC)CC(=O)N(C)[C@@H](C3CCC3)C(=O)N[C@@H]([C@@H](C)CC)C(=O)N(C)CC(=O)N(C)[C@H]3C/C=C\CCN(C3=O)[C@@H](Cc3ccc(C(F)(F)F)cc3)C(=O)N(C)CC(=O)N[C@@H](CCc3ccc(C(F)(F)F)c(OC)c3)C(=O)N2C1 [PP2022] | 2.7 | – | 0.11 | – | – | A (a compound having 10 or more and less than 20 is denoted as A) | A (a compound having 10 or more and less than 20 is denoted as A) |
| CC[C@H](C)[C@@H]1NC(=O)[C@H](CC2CC2)N(C)C(=O)C[C@@H](C(=O)N(C)CC)N(C)C(=O)[C@H](C2CCCC2)N(C)C(=O)C2(CC(C)(C)C2)NC(=O)[C@@H]2C[C@@H](F)CN2C(=O)[C@H](CCc2cc(F)c(C(F)(F)F)c(F)c2)NC(=O)CN(C)C(=O)[C@H](Cc2ccc(C)cc2)N2CC/C=C\C[C@@H](C2=O)N(C)C(=O)CN(C)C1=O [PP2802] | 5.5 | 0.034 | – | A (a compound having 10 or more and less than 20 is denoted as A) | AA (a compound having 20 or more is denoted as AA) | – | – |
| CCCN1C(=O)CN(C)C(=O)[C@@H]2CCN2C(=O)[C@H]([C@@H](C)CC)NC(=O)[C@H](CC(C)C)N(C)C(=O)C[C@@H](C(=O)N(C)C)N(C)C(=O)[C@H](C2CCCC2)N(C)C(=O)C2(CCCC2)NC(=O)[C@@H]2CCCN2C(=O)[C@H](CCc2ccc(C(F)(F)F)c(Cl)c2)NC(=O)CN(C)C(=O)[C@@H]1Cc1ccc(C(F)(F)F)cc1 [PP0429] ([NMeL]I[Aze][Sar][NPrPhe(4-CF3)][Sar][hPhe(3-Cl-4-CF3)]P[Ac5c][NMeGly(cPent)][NMeD]-NMe2; lactam N-11) | 12.4 | – | 0.39 | – | – | C (A compound having a KD ratio of 0.1 or more and less than 3 is denoted as C) | B (a compound having 3 or more and less than 10 is denoted as B) |

More lines, in order of falling IC50 [3], values ahead:

| IC50 [3] [nM] | Kd [4] [nM] | Kd ([4]; Single Cycle Kinetics) [nM] | SMILES | HRAS /KRAS [1, 5] | NRAS /KRAS [2, 6] | HRAS /KRAS [1, 7] | NRAS /KRAS [2, 8] |
| --- | --- | --- | --- | --- | --- | --- | --- |
| 49.6 | 0.8 | – | CCO[C@@H]1C[C@H]2C(=O)NC3(CC(C)(C)C3)C(=O)N(C)[C@@H](C3CCCC3)C(=O)N(C)[C@H](C(=O)N(C)C)CC(=O)N(C)[C@@H]([C@H](C)OC)C(=O)N[C@@H]([C@@H](C)CC)C(=O)N3CCC[C@H]3C(=O)N(C)[C@H]3C/C=C\CCN(C3=O)[C@@H](Cc3ccc(C)cc3)C(=O)N(C)CC(=O)N[C@@H](CCc3cc(F)c(C(F)(F)F)c(F)c3)C(=O)N2C1 [PP3199] | A (a compound having 10 or more and less than 20 is denoted as A) | A (a compound having 10 or more and less than 20 is denoted as A) | – | – |
| 13.2 | 0.07 | – | CCO[C@@H]1C[C@H]2C(=O)NC3(CC(C)(C)C3)C(=O)N(C)[C@@H](C3CCCC3)C(=O)N(C)[C@H](C(=O)N(C)CC)CC(=O)N(C)[C@@H]([C@@H](C)OC)C(=O)N[C@@H]([C@@H](C)CC)C(=O)N(C)CC(=O)N(C)[C@H]3C/C=C\CCN(C3=O)[C@@H](Cc3ccc(C(F)(F)F)cc3)C(=O)N(C)CC(=O)N[C@@H](CCc3cc(F)c(C(F)(F)F)c(F)c3)C(=O)N2C1 [PP3160] | A (a compound having 10 or more and less than 20 is denoted as A) | A (a compound having 10 or more and less than 20 is denoted as A) | – | – |
| 9.1 | 0.14 | – | CC[C@H](C)[C@@H]1NC(=O)[C@H](CC(C)C)N(C)C(=O)C[C@@H](C(=O)N2CCOCC2)N(C)C(=O)[C@H](C2CCCC2)N(C)C(=O)C2(CCCC2)NC(=O)[C@@H]2C[C@@H](OC3CCCCO3)CN2C(=O)[C@H](CCc2ccc(C(F)(F)F)c(Cl)c2)NC(=O)CN(C)C(=O)[C@H](Cc2ccc(C)cc2)N(CC)C(=O)CN(C)C(=O)CN(C)C1=O (stereo partly shown) [PP0068] ([NMeL]I[Sar][Sar][NEtPhe(4-Me)][Sar][hPhe(3-Cl-4-CF3)][Hyp](X4)[Ac5c][NMeGly(cPent)][NMeD]-Morpholide; lactam N-11) | C (A compound having a KD ratio of 0.1 or more and less than 3 is denoted as C) | C (A compound having a KD ratio of 0.1 or more and less than 3 is denoted as C) | – | – |
| 8.8 | 0.15 | – | CCC[C@H]1C(=O)N[C@@H](C2CCCC2)C(=O)N(C)CC(=O)N(C)[C@H]2C/C=C\CCN(C2=O)[C@@H](Cc2ccc(C)cc2)C(=O)N(C)CC(=O)N[C@@H](CCc2ccc(C(F)(F)F)c(OC)c2)C(=O)N2C[C@H](OCC)C[C@H]2C(=O)NC2(CC(C)(C)C2)C(=O)N(C)[C@@H](CC(C)(C)C)C(=O)N(C)[C@H](C(=O)N(C)C)CC(=O)N1C [PP3005] | B (a compound having 3 or more and less than 10 is denoted as B) | A (a compound having 10 or more and less than 20 is denoted as A) | – | – |
